Assay results published in patent US6214844A, “Substituted imidazole compounds” (SmithKline Beecham Corporation, priority 1999, dated 2001).
Blank lines part the entries; values can stand above or below the molecule they belong to.

Assays:
[1] = system: human PGHS-2; assay: Prostoglandin endoperoxide synthase-2 (PGHS-2) assay: PGHS-2 protein expression in LPS stimulated human monocytes; type: cell-based
Procedure: Prostoglandin endoperoxide synthase-2 (PGHS-2) assay:
The following assay describes a method for determining the inhibitory effects of compounds of Formula (I) on human PGHS-2 protein expression in LPS stimulated human monocytes.
Method: Human peripheal blood monocytes were isolated from buffy coats by centrifugation through Ficoll and Percoll gradients. Cells were seeded at 2×10^6 /well in 24 well plates and allowed to adhere for 1 hour in RPMI supplemented with 1% human AB serum, 20 mM L-glutamine, Penicillin-Streptomycin and 10 mM HEPES. Compounds were added at various concentrations and incubated at 37° C. for 10 minutes. LPS was added at 50 ng/well (to induce enzyme expression) and incubated overnight at 37° C. The supernatant was removed and cells washed once in cold PBS. The cells were lysed in 100 μl of cold lysis buffer(50 mM Tris/HCl pH 7.5, 150 mM NaCl, 1% NP40, 0.5% sodium deoxycholate, 0.1% SDS, 300 ug/ml DNAse, 0.1% TRITON X-100, 1 mM PMSF, 1 mM leupeptin, 1 mM pepstatin). The lysate was centrifuged (10,000×g for 10 min. at 4° C.) to remove debris and the soluble fraction was subjected to SDS PAGE. analysis (12% gel). Protein separated on the gel were transferred onto nitrocellulose membrane by electrophoretic means for 2 hours at 60 volts. The membrane was pretreated for one hour in PBS/0.1% Tween 20 with 5% non-fat dry milk. After washing 3 times in PBS/Tween buffer, the membrane was incubated with a 1:2000 dilution of a monospecific antiserum to PGHS-2 or a 1:1000 dilution of an antiserum to PGHs-1 in PBS/Tween with 1% BSA for one hour with continuous shaking. The membrane was washed 3× in PBS/Tween and then incubated with a 1:3000 dilution of horseradish peroxidase conjugated donkey antiserum to rabbit Ig (Amershamn) in PBS/Tween with 1% BSA for one hour with continuous shaking. The membrane was then washed 3× in PBS/Tween and the ECL immunodetection system (Amersham) was used to detect the level of expression of prostaglandin endoperoxide synthases-2.

[2] = target: T1, CSBP2 (Homo sapiens, UniProt Q16539); assay: CSBP kinase assay (32P transfer to EGFR-derived peptide T669); type: biochemical
T1 construct: made in house
Procedure: Compounds (5 ul from [6X] stock^(2)) are pre-incubated with the enzyme and peptide for 20 min on ice prior to starting the reactions with 32P/MgATP. Reactions are incubated at 30° C. for 10 min and stopped by adding 10 ul of 0.3 M phosphoric acid. 32P-labeled peptide is separated on phosphocellulose (Wattman, p81) filters by spotting 30 ul reaction mixture. Filters are washed 3 times with […] phosphoric acid followed by 2 washes with H2 O, and counted for 32P.
^(2) Compounds are usually dissolved in DMSO and are diluted in 25 mM Hepes buffer to get final concentration of DMSO of 0.17%.

[3] = target: T2, cytokine specific binding protein (CSBP) (Homo sapiens, UniProt Q16539); assay: Cytokine Specific Binding Protein Assay (radiocompetitive binding, cytosolic fraction of THP.1 cells); settings: THP.1 cytosolic fraction, radiolabeled compound
T2 construct: soluble cystosolic fraction from THP.1 cells; endogenous in cells; host or cells: THP.1 cells, soluble cytosolic fraction

[4] = system: IL-1; assay: Interleukin-1 (IL-1) production by LPS-stimulated human peripheral blood monocytes; type: cell-based; settings: LPS 50 ng/ml
Procedure: Human peripheral blood monocytes are isolated and purified from either fresh blood preparations from volunteer donors, or from blood bank buffy coats, according to the procedure of Colotta et al, J Immunol, 132, 936 (1984). These monocytes (1×10^6) are plated in 24-well plates at a concentration of 1-2 million/ml per well. The cells are allowed to adhere for 2 hours, after which time non-adherent cells are removed by gentle washing. Test compounds are then added to the cells for 1 h before the addition of lipopolysaccharide (50 ng/ml), and the cultures are incubated at 37° C. for an additional 24 h. At the end of this period, culture supernatants are removed and clarified of cells and all debris. Culture supernatants are then immediately assayed for IL-1 biological activity, either by the method of Simon et al., J. Immunol. Methods, 84, 85, (1985) (based on ability of IL-1 to stimulate a Interleukin 2 producing cell line (EL-4) to secrete IL-2, in concert with A23187 ionophore) or the method of Lee et al., J. Immuno Therapy, 6 (1), 1-12 (1990) (ELISA assay).

[5] = active, rank order potency similar to that for inhibiting cytokine production

T1 sequence (Q16539 whole entry): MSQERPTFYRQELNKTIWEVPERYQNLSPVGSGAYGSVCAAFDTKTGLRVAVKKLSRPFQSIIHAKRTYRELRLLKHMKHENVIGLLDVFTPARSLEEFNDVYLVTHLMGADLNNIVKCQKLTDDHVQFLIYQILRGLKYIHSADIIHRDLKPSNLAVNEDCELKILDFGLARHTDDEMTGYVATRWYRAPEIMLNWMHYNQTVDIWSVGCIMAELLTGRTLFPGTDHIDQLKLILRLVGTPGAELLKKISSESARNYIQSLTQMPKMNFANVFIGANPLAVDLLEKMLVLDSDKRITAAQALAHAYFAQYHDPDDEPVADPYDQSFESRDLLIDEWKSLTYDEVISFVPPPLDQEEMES
T2 sequence (Q16539 whole entry): as above

SMILES: C[S+]([O-])c1ccc(-c2nc3n(c2-c2ccncc2)CCC3)cc1 (stereo not drawn) [2-(4-Methylsulfinylphenyl)-3-(4-pyridyl)-6,7-dihydro-(5H)-pyrrolo[1,2-a]imidazole]
inhibition of LPS induced PGHS-2 protein expression ([1]; inactive, up to 10 μM): inactive

SMILES: Fc1ccc(-c2nc3n(c2-c2ccncc2)CCS3)cc1 [6-(4-Fluorophenyl)-2,3-dihydro-5-(4-pyridinyl)imidazo[2,1-b]thiazole]
inhibition of LPS induced PGHS-2 protein expression [1, 5]: active

IC50 [2]: > 50 µM
SMILES: CCOC(=O)N1CCC(n2cnc(-c3ccc(SC)cc3)c2-c2ccnc(SC)n2)CC1 [Example 9, 1-(1-Ethylcarboxylpiperidin-4-yl)-3-(4-thiomethylphenyl)-5-[2-(thiomethyl)pyrimidin-4-yl]-imidazole]

SMILES: COc1ccc(C2CNC(=O)C2)cc1OC1CCCC1 (stereo not drawn) [rolipramr]
inhibition of LPS induced PGHS-2 protein expression ([1]; inactive, up to 10 μM): inactive

IC50 [3]: < 50 µM
SMILES: CSc1nccc(-c2c(-c3ccc(F)cc3)ncn2C2CCNCC2)n1 [Example 6, 5-(2-Methylthio-4-pyrimidinyl)4-(4-fluorophenyl)-1-(4-piperidinyl)imidazole]

SMILES: C[C@@H]1C[C@H]2[C@@H]3CCC4=CC(=O)C=C[C@]4(C)[C@@]3(F)[C@@H](O)C[C@]2(C)[C@@]1(O)C(=O)CO [Dexamethasone]
inhibition of LPS induced PGHS-2 protein expression [1, 5]: active

SMILES: CC(Cc1ccc(O)c(O)c1)C(C)Cc1ccc(O)c(O)c1 (stereo not drawn) [NDGA]
inhibition of LPS induced PGHS-2 protein expression ([1]; inactive, up to 10 μM): inactive

SMILES: COc1nccc(-c2c(-c3ccc(F)cc3)ncn2C2CCNCC2)n1 [Example 1, 5-(2-Methoxy-4-pyrimidinyl)-4-(4-fluorophenyl)-1-(4-piperidinyl)imidazole]
inhibition of IL-1 production [4]: positive inhibition

SMILES: C[S+]([O-])c1ccc(-c2nc(-c3ccc(F)cc3)c(-c3ccncc3)[nH]2)cc1 (stereo not drawn) [4-(4-Fluorophenyl)-2-(4-methylsulfinylphenyl)-5-(4-pyridyl)imidazole]
inhibition of LPS induced PGHS-2 protein expression [1, 5]: active

SMILES: O=C1CCN(c2ccccc2)N1 [phenidone]
inhibition of LPS induced PGHS-2 protein expression ([1]; inactive, up to 10 μM): inactive

IC50 [2]: > 50 µM
SMILES: CC(C)Oc1cc(-c2c(-c3ccc(F)cc3)ncn2C2CCNCC2)ccn1 [Example 5, 5-(2-iso-Propoxy4-pyridinyl)-4-(4-fluorophenyl)-1-(4-piperidinyl)imidazole]

IC50 [2]: > 50 µM
SMILES: CCOC(=O)N1CCC(n2cnc(-c3ccc([S+](C)[O-])cc3)c2-c2ccnc([S+](C)[O-])n2)CC1 (stereo not drawn) [Example 10]
